Laboratory results published in patent US8461336B2, “Boron-containing small molecules” (Anacor Pharmaceuticals, Inc., priority 2008, dated 2013).
Where a name gives a salt, the structure may show the parent alone.

Key:
ROCK1 = biological target: T1, ROCK1 (Homo sapiens, UniProt Q13464); experiment: Kinase assay ROCK1 ([gamma-33P]ATP, S6 kinase peptide substrate); assay type: biochemical; conditions: 20 nM recombinant human ROCK1 catalytic domain, room temperature
T1 construct: Catalytic Domain (amino acids 1-535); GST; purchased Reaction Biology Corp., Malvern, Pa; host or cells: insect cells
Procedure: (§1) The kinase assays were performed at room temperature using 20 nM ROCK1 or ROCK2 enzyme and 20 uM peptide substrate, [gamma-^33P]ATP, and drug concentration were varied. The ROCK1 enzyme is recombinant human protein, Catalytic Domain (amino acids 1-535) (Reaction Biology Corp., Malvern, Pa.), GST-tagged, expressed in insect cells. MW=[…]. The ROCK2 enzyme is recombinant human protein (amino acids 11-552), N-terminal histidine-tagged, expressed in insect cells, MW=63.3 kDa (Reaction Biology Corp., Malvern, Pa.). The substrate was a peptide derived from S6 kinase peptide for both ROCK1 & 2 assays; [[…]], Mw=3630 Da (Reaction Biology Corp., Malvern, Pa.). The reaction buffer contained 20 mM HEPES-HCl, pH 7.5, 10 mM MgCl2, 1 mM EGTA, 0.02% Brij35, 0.1 mM Na3VO4, 0.02 mg/ml BSA, 2 mM DTT, and 1% DMSO. Enzyme/substrate/drug mixture were added and incubated for 20 min to ensure compound was equilibrated and bound to the enzyme. Then concentrations of ATP were added to initiate the reaction. The activity was monitored by filter plate capture of the radioactive peptide using ion exchange filtration (P81, Whatmann) and washed extensively. The reactions were monitored every 5-15 min to obtain progress curve with time course. At each time point, radioisotope signal (“P) was converted into “uM phosphate transferred to substrate”, and was plotted against time. The initial linear slope of progress curve was obtained by linear regression. The slopes (or velocity; uM/min) were then plotted against ATP concentrations for Michaelis-Menten plot, and subsequent Lineweaver-Burk plot (double-reciprocal plot) and secondary plot, using GraphPad Prism software.

ROCK2 = biological target: T2, ROCK2 (Homo sapiens, UniProt O75116); experiment: Kinase assay ROCK2 ([gamma-33P]ATP, S6 kinase peptide substrate); assay type: biochemical; conditions: 20 nM recombinant human ROCK2, room temperature
T2 construct: recombinant human protein (amino acids 11-552); His (N); purchased Reaction Biology Corp., Malvern, Pa; host or cells: insect cells
Procedure: as §1

TNF-α = experiment: Cytokine assay, LPS-induced TNF-α in human PBMC; assay type: cell-based; conditions: 1 μg/mL LPS, supernatant at 24 hours
Procedure: The ability of the compounds described herein to inhibit pro-inflammatory cytokines or phosphodiesterases were tested.
Frozen human peripheral blood mononucleocytes (PBMC) were thawed and centrifuged. Cryopreservation media was aspirated off of the cell pellet, and the cells were resuspended in fresh culture media (CM) comprising RPMI 1640 and 10% FBS in 96 well plates. Test article was dissolved in DMSO to form a 10 mM sample (DMSO, 100%). The 10 mM samples were diluted to 100 μM in CM (DMSO, 1%), then further diluted to 10, 1, 0.1, 0.01 μM in 200 μL of CM (n=3). […] IL-23 was assayed using a commercial ELISA kit (R&D Systems).

K-ATP channel = conditions: example given in the text for K-ATP channel modulation; cited from earlier work

T2 sequence (O75116 11-552): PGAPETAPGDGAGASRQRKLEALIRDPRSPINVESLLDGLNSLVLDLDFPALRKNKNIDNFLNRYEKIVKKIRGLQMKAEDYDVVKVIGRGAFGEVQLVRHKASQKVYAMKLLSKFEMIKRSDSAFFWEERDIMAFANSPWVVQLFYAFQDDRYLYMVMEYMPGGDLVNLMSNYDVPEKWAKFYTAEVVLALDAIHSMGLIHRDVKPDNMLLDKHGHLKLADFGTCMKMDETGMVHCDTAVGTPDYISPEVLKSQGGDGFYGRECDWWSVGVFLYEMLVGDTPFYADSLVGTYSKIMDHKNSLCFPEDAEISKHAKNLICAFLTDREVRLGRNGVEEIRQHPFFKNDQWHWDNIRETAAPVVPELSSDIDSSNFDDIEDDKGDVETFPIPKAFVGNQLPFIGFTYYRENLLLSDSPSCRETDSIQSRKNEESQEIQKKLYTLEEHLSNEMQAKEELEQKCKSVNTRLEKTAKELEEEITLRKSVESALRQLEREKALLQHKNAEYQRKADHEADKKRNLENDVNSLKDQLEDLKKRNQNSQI
T1 sequence (Q13464 1-535): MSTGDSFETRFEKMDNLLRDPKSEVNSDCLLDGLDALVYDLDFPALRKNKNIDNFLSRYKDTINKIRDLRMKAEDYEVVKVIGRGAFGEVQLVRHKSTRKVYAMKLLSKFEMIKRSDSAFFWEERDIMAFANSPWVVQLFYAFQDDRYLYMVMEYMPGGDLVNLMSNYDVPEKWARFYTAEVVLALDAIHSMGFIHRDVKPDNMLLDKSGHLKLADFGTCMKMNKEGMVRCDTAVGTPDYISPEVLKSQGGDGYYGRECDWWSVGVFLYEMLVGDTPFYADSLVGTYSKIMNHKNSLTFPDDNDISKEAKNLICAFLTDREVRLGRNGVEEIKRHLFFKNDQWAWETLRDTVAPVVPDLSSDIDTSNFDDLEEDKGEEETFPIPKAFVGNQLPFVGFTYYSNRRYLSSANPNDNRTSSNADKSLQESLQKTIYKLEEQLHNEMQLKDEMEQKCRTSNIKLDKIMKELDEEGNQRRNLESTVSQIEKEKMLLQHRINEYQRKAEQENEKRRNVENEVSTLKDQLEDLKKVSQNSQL

| Compound | IC50 (ROCK1) [µM] | IC50 (ROCK2) [µM] | melting point [°C] | IC50 (TNF-α) [µM] | pKi (K-ATP channel) |
| --- | --- | --- | --- | --- | --- |
| NCc1ccc(Oc2ccc3c(c2)B(O)OC3)c(F)c1 [W] | 2.44 | 0.86 |  | 0.019 |  |
| CC1=NS(=O)(=O)c2cc(Cl)ccc2N1 [diazoxide] |  |  |  |  | 3.8 |
| NCc1ccc(Oc2ccc3c(c2)B(O)OC3)cc1 (as salt: chloride) [(4-(1-hydroxy-1,3-dihydrobenzo[c][1,2]oxaborol-6-yloxy)phenyl)methanaminium chloride] |  |  | > 230 |  |  |

Second part, led by results:

| IC50 (ROCK1) [µM] | IC50 (ROCK2) [µM] | melting point [°C] | Compound | IC50 (TNF-α) [µM] | pKi (K-ATP channel) |
| --- | --- | --- | --- | --- | --- |
| 8.1 | 3.1 |  | NCc1ccc(Oc2ccc3c(c2)B(O)OC3)cc1 [T, (4-(1-hydroxy-1,3-dihydrobenzo[c][1,2]oxaborol-6-yloxy)phenyl)methanaminium chloride] |  |  |
| 18.1 | 9.09 |  | N#Cc1ccc(Oc2ccc3c(c2)COB3O)nc1OC1CCCC1 [Z, 2-Cyclopentyloxy-6-(1-hydroxy-1,3-dihydro-benzo[c][1,2]oxaborol-5-yloxy)-nicotinonitrile] |  |  |
| 4.75 | 2.11 |  | NCc1ccc(Oc2ccc3c(c2)B(O)OC3)c(Cl)c1 [X] |  |  |
| 69.5 | 40.2 |  | NCc1cccc(Oc2ccc3c(c2)B(O)OC3)c1 [U, (3-(1-hydroxy-1,3-dihydrobenzo[c][1,2]oxaborol-6-yloxy)phenyl)methanaminium chloride] |  |  |
| 25.1 | 10.1 |  | NCc1ccc(Oc2ccc3c(c2)COB3O)cc1 [V, (4-(1-hydroxy-1,3-dihydrobenzo[c][1,2]oxaborol-5-yloxy)phenyl)methanaminium chloride] |  |  |
